Experimental data published in the supplement of paper PMC7287046.

How the values were obtained:
Details in all cases: exposure time: 72 h
SF539 [1] = test: Loewe synergy score (Combenefit); higher = more synergy; extreme values may be limits of the assay
Protocol: (§1)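 The same 6x6 dose matrices of drug pairs on glioma cell lines (72 h, CellTiter-Glo viability normalised to DMSO, triplicate) were scored with Combenefit. The Loewe, Bliss and HSA synergy scores are given; paper thresholds are Loewe 7.8 and Bliss 2.5.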

SNB75 [2] = test: as above
Protocol: as §1

U87 [3] = test: as above
Protocol: as §1

SF268 [4] = test: as above
Protocol: as §1

AM-38 [5] = test: as above
Protocol: as §1

U118 [6] = test: as above
Protocol: as §1

KNS-42 [7] = test: as above
Protocol: as §1

T98G [8] = test: as above
Protocol: as §1

U251 [9] = test: as above
Protocol: as §1

SF539 [10] = test: Chou-Talalay combination index (dimensionless); higher = less synergy (more antagonism)
Protocol: (§2)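 Glioma cell lines were treated for 72 h with a 6x6 matrix of two drugs, each in twofold dilutions with the top dose at the single-drug IC50. Viability was read by CellTiter-Glo and normalised to DMSO controls, in triplicate. The Chou-Talalay combination index was computed by the median effect principle; CI < 0.8 means synergy.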

KNS42 = test: as above
Protocol: as §2

SNB75 [11] = test: as above
Protocol: as §2

AM38 = test: as above
Protocol: as §2

U87 [12] = test: as above
Protocol: as §2

T98 = test: as above
Protocol: as §2

SF268 [13] = test: as above
Protocol: as §2

U118 [14] = test: as above
Protocol: as §2

U251 [15] = test: as above
Protocol: as §2

SF539 [16] = test: HSA synergy score (Combenefit); higher = more synergy
Protocol: as §1

SNB75 [17] = test: as above
Protocol: as §1

U87 [18] = test: as above
Protocol: as §1

SF268 [19] = test: as above
Protocol: as §1

AM-38 [20] = test: as above
Protocol: as §1

U118 [21] = test: as above
Protocol: as §1

KNS-42 [22] = test: as above
Protocol: as §1

T98G [23] = test: as above
Protocol: as §1

U251 [24] = test: as above
Protocol: as §1

SF539 [25] = test: Bliss synergy score (Combenefit); higher = more synergy; extreme values may be limits of the assay
Protocol: as §1

SNB75 [26] = test: as above
Protocol: as §1

U87 [27] = test: as above
Protocol: as §1

SF268 [28] = test: as above
Protocol: as §1

AM-38 [29] = test: as above
Protocol: as §1

U118 [30] = test: as above
Protocol: as §1

KNS-42 [31] = test: as above
Protocol: as §1

T98G [32] = test: as above
Protocol: as §1

U251 [33] = test: as above
Protocol: as §1

Cc1cc([C@@H](C)Nc2ccccc2C(=O)O)c2nc(N3CCOCC3)cc(=O)n2c1 [AZD6482] + CCOc1nc(NC(=O)Cc2cc(OC)ccc2OC)cc(N)c1C#N [JNK inhibitor VIII]
Loewe synergy score (SF539 [1]): 1.84 | Loewe synergy score (SNB75 [2]): 6.97 | Loewe synergy score (U87 [3]): 1 | Loewe synergy score (SF268 [4]): 0.654 | Loewe synergy score (AM-38 [5]): 15.4 | Loewe synergy score (U118 [6]): 2.68 | Loewe synergy score (KNS-42 [7]): 0.866 | Loewe synergy score (T98G [8]): 11.5 | Loewe synergy score (U251 [9]): 0.00428 | Chou-Talalay combination index (SF539 [10]): 0.545 | Chou-Talalay combination index (KNS42): 0.994 | Chou-Talalay combination index (SNB75 [11]): 1 | Chou-Talalay combination index (AM38): 0.77 | Chou-Talalay combination index (U87 [12]): 0.576 | Chou-Talalay combination index (T98): 0.758 | Chou-Talalay combination index (SF268 [13]): 0.792 | Chou-Talalay combination index (U118 [14]): 0.669 | Chou-Talalay combination index (U251 [15]): 0.731 | HSA synergy score (SF539 [16]): 7.49 | HSA synergy score (SNB75 [17]): 6.97 | HSA synergy score (U87 [18]): 1 | HSA synergy score (SF268 [19]): 4.35 | HSA synergy score (AM-38 [20]): 17 | HSA synergy score (U118 [21]): 8.89 | HSA synergy score (KNS-42 [22]): 0.866 | HSA synergy score (T98G [23]): 11.5 | HSA synergy score (U251 [24]): 0.00428 | Bliss synergy score (SF539 [25]): 0.0312 | Bliss synergy score (SNB75 [26]): 6.97 | Bliss synergy score (U87 [27]): 1 | Bliss synergy score (SF268 [28]): 0.107 | Bliss synergy score (AM-38 [29]): 14.5 | Bliss synergy score (U118 [30]): 2.95 | Bliss synergy score (KNS-42 [31]): 0.255 | Bliss synergy score (T98G [32]): 10.8 | Bliss synergy score (U251 [33]): 0.00428

O=c1[nH]c2ccccc2n1C1CCN(Cc2ccc(-c3[nH]c4cc5ncnc5cc4nc3-c3ccccc3)cc2)CC1 [Akt inhibitor VIII] + N#CC(c1ccnc(NCCc2cccnc2)n1)c1nc2ccccc2s1 [AS601245]
Loewe synergy score (SF539 [1]): 0.638 | Loewe synergy score (SNB75 [2]): 0.62 | Loewe synergy score (U87 [3]): 6.85 | Loewe synergy score (SF268 [4]): 0.94 | Loewe synergy score (AM-38 [5]): 11.2 | Loewe synergy score (U118 [6]): 7.71 | Loewe synergy score (KNS-42 [7]): 1.66 | Loewe synergy score (T98G [8]): 9.66 | Loewe synergy score (U251 [9]): 3.96 | Chou-Talalay combination index (SF539 [10]): 0.966 | Chou-Talalay combination index (KNS42): 0.979 | Chou-Talalay combination index (SNB75 [11]): 0.89 | Chou-Talalay combination index (AM38): 0.584 | Chou-Talalay combination index (U87 [12]): 0.0154 | Chou-Talalay combination index (T98): 0.031 | Chou-Talalay combination index (SF268 [13]): 0.805 | Chou-Talalay combination index (U118 [14]): 0.264 | Chou-Talalay combination index (U251 [15]): 0.641 | HSA synergy score (SF539 [16]): 0.651 | HSA synergy score (SNB75 [17]): 5.96 | HSA synergy score (U87 [18]): 12.3 | HSA synergy score (SF268 [19]): 8.59 | HSA synergy score (AM-38 [20]): 14 | HSA synergy score (U118 [21]): 12.4 | HSA synergy score (KNS-42 [22]): 3.65 | HSA synergy score (T98G [23]): 17.9 | HSA synergy score (U251 [24]): 3.96 | Bliss synergy score (SF539 [25]): 0.0617 | Bliss synergy score (SNB75 [26]): 1.31 | Bliss synergy score (U87 [27]): 10.4 | Bliss synergy score (SF268 [28]): 1.39 | Bliss synergy score (AM-38 [29]): 8.16 | Bliss synergy score (U118 [30]): 5.46 | Bliss synergy score (KNS-42 [31]): 0.964 | Bliss synergy score (T98G [32]): 9.74 | Bliss synergy score (U251 [33]): 3.96

C[C@@H](Oc1cc(-c2cnn(C3CCNCC3)c2)cnc1N)c1c(Cl)ccc(F)c1Cl [Crizotinib] + C=CCc1cccc(/C=N/NC(=O)CN2CCN(Cc3ccccc3)CC2)c1O [PAC-1]
Loewe synergy score (SF539 [1]): 0.62 | Loewe synergy score (SNB75 [2]): 0.297 | Loewe synergy score (U87 [3]): 4.47 | Loewe synergy score (SF268 [4]): 0.692 | Loewe synergy score (AM-38 [5]): 0.141 | Loewe synergy score (U118 [6]): 0.609 | Loewe synergy score (KNS-42 [7]): 15.3 | Loewe synergy score (T98G [8]): 2.4 | Loewe synergy score (U251 [9]): 1.22 | Chou-Talalay combination index (SF539 [10]): 0.877 | Chou-Talalay combination index (KNS42): 0.421 | Chou-Talalay combination index (SNB75 [11]): 0.951 | Chou-Talalay combination index (AM38): 0.937 | Chou-Talalay combination index (U87 [12]): 0.154 | Chou-Talalay combination index (T98): 0.476 | Chou-Talalay combination index (SF268 [13]): 1.04 | Chou-Talalay combination index (U118 [14]): 0.584 | Chou-Talalay combination index (U251 [15]): 0.821 | HSA synergy score (SF539 [16]): 3.88 | HSA synergy score (SNB75 [17]): 5.78 | HSA synergy score (U87 [18]): 4.47 | HSA synergy score (SF268 [19]): 1.21 | HSA synergy score (AM-38 [20]): 0.987 | HSA synergy score (U118 [21]): 2.29 | HSA synergy score (KNS-42 [22]): 16.5 | HSA synergy score (T98G [23]): 2.4 | HSA synergy score (U251 [24]): 1.43 | Bliss synergy score (SF539 [25]): 1.39 | Bliss synergy score (SNB75 [26]): 0.417 | Bliss synergy score (U87 [27]): 4.47 | Bliss synergy score (SF268 [28]): 0 | Bliss synergy score (AM-38 [29]): 0.773 | Bliss synergy score (U118 [30]): 0.539 | Bliss synergy score (KNS-42 [31]): 7.19 | Bliss synergy score (T98G [32]): 2.4 | Bliss synergy score (U251 [33]): 0.0857

C[C@@H](Oc1cc(-c2cnn(C3CCNCC3)c2)cnc1N)c1c(Cl)ccc(F)c1Cl [Crizotinib] + CCOc1nc(NC(=O)Cc2cc(OC)ccc2OC)cc(N)c1C#N [JNK inhibitor VIII]
Loewe synergy score (SF539 [1]): 2.32 | Loewe synergy score (SNB75 [2]): 4.28 | Loewe synergy score (U87 [3]): 0 | Loewe synergy score (SF268 [4]): 1.66 | Loewe synergy score (AM-38 [5]): 0.954 | Loewe synergy score (U118 [6]): 4.11 | Loewe synergy score (KNS-42 [7]): 2.75 | Loewe synergy score (T98G [8]): 2.42 | Loewe synergy score (U251 [9]): 6.52 | Chou-Talalay combination index (SF539 [10]): 0.458 | Chou-Talalay combination index (KNS42): 0.929 | Chou-Talalay combination index (SNB75 [11]): 0.972 | Chou-Talalay combination index (AM38): 1.13 | Chou-Talalay combination index (U87 [12]): 2.67 | Chou-Talalay combination index (T98): 0.945 | Chou-Talalay combination index (SF268 [13]): 0.637 | Chou-Talalay combination index (U118 [14]): 0.732 | Chou-Talalay combination index (U251 [15]): 0.838 | HSA synergy score (SF539 [16]): 13.6 | HSA synergy score (SNB75 [17]): 10.4 | HSA synergy score (U87 [18]): 0 | HSA synergy score (SF268 [19]): 6.62 | HSA synergy score (AM-38 [20]): 1.09 | HSA synergy score (U118 [21]): 9.81 | HSA synergy score (KNS-42 [22]): 5.67 | HSA synergy score (T98G [23]): 2.65 | HSA synergy score (U251 [24]): 6.52 | Bliss synergy score (SF539 [25]): 5.02 | Bliss synergy score (SNB75 [26]): 0 | Bliss synergy score (U87 [27]): 0 | Bliss synergy score (SF268 [28]): 2.4 | Bliss synergy score (AM-38 [29]): 0 | Bliss synergy score (U118 [30]): 5.36 | Bliss synergy score (KNS-42 [31]): 1.72 | Bliss synergy score (T98G [32]): 0.922 | Bliss synergy score (U251 [33]): 4.44

C[C@@H](Oc1cc(-c2cnn(C3CCNCC3)c2)cnc1N)c1c(Cl)ccc(F)c1Cl [Crizotinib] + Cc1cc([C@@H](C)Nc2ccccc2C(=O)O)c2nc(N3CCOCC3)cc(=O)n2c1 [AZD6482]
Loewe synergy score (SF539 [1]): 2.57 | Loewe synergy score (SNB75 [2]): 3.14 | Loewe synergy score (U87 [3]): 5.48 | Loewe synergy score (SF268 [4]): 3.44 | Loewe synergy score (AM-38 [5]): 3.58 | Loewe synergy score (U118 [6]): 3.69 | Loewe synergy score (KNS-42 [7]): 3.35 | Loewe synergy score (T98G [8]): 4.32 | Loewe synergy score (U251 [9]): 16.2 | Chou-Talalay combination index (SF539 [10]): 0.842 | Chou-Talalay combination index (KNS42): 0.887 | Chou-Talalay combination index (SNB75 [11]): 0.802 | Chou-Talalay combination index (AM38): 0.52 | Chou-Talalay combination index (U87 [12]): 0.652 | Chou-Talalay combination index (T98): 0.543 | Chou-Talalay combination index (SF268 [13]): 0.786 | Chou-Talalay combination index (U118 [14]): 0.844 | Chou-Talalay combination index (U251 [15]): 0.567 | HSA synergy score (SF539 [16]): 10.7 | HSA synergy score (SNB75 [17]): 9.49 | HSA synergy score (U87 [18]): 5.48 | HSA synergy score (SF268 [19]): 6.69 | HSA synergy score (AM-38 [20]): 11.9 | HSA synergy score (U118 [21]): 3.87 | HSA synergy score (KNS-42 [22]): 4.57 | HSA synergy score (T98G [23]): 4.32 | HSA synergy score (U251 [24]): 16.2 | Bliss synergy score (SF539 [25]): 0.821 | Bliss synergy score (SNB75 [26]): 0.559 | Bliss synergy score (U87 [27]): 5.48 | Bliss synergy score (SF268 [28]): 0.801 | Bliss synergy score (AM-38 [29]): 4.62 | Bliss synergy score (U118 [30]): 0.491 | Bliss synergy score (KNS-42 [31]): 3.3 | Bliss synergy score (T98G [32]): 4.32 | Bliss synergy score (U251 [33]): 12.8
